Measurements published in US20250195483A1, “SPIRO PIPERIDINE DERIVATIVES AS INHIBITORS OF APOL1 AND METHODS OF USING SAME” (Vertex Pharmaceuticals Incorporated, priority 2022, published 2025).

Each molecule was assayed against T1, APOL1 (Homo sapiens, UniProt O14791) (assay: MultiTox-Fluor Multiplex Cytotoxicity Assay, tet-inducible APOL1 T-REx-HEK293 cells (G0, G1 or G2 clone not specified for Table 20)). Conditions: tet-induced, 24 hours with compound, ratio of dead to live cells, read-out: IP50 (i.e., IC50 for cell proliferation).
T1 sequence (O14791 1-398): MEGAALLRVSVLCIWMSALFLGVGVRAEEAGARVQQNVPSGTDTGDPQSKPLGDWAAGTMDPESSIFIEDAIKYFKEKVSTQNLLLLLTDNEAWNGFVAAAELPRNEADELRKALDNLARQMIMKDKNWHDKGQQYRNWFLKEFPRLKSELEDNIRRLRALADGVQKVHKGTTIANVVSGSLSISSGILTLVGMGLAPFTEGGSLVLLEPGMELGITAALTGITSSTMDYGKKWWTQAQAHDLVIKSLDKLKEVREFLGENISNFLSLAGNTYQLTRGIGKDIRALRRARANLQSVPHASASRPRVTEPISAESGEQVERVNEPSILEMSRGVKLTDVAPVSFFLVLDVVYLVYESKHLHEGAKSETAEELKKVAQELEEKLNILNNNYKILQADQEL
Type: cell-based
Experimental: Human embryonic kidney (HEK293) cell lines containing a tet-inducible expression system (T-REx™; Invitrogen, Carlsbad, CA) and Adeno-associated virus site 1 pAAVS1-Puro-APOL1 G0 or pAAVS1-Puro-APOL1 G1 or pAAVS1-Puro-APOL1 G2 Clones G0 DC2.13, G1 DC3.25, and G2 DC4.44 were grown in a T-225 flask at ˜90% confluency in cell growth media (DMEM, 10% Tet-free FBS, 2 mM L-glutamine, 100 Units/mL penicillin-streptomycin, 5 μg/mL blasticidin S HCl, 1 μg/mL puromycin dihydrochloride). Cells were washed with DPBS and then trypsinized to dissociate from the flask. Media was used to quench the trypsin, cells were then pelleted at 200 g and resuspended in fresh cell assay media (DMEM, 2% Tet-free FBS, 2 mM L-glutamine, 100 Units/mL penicillin-streptomycin). Cells were counted and diluted to 1.17×10^6 cells/mL. 20 μL of cells (23,400/well) were dispensed in every well of a 384-well Poly-D-Lysine coated plate using the Multidrop dispenser. The plates were then incubated at room temperature for one hour.
Tetracycline is needed to induce APOL1 expression. 1 mg/mL tet stock in water was diluted to 250 ng/mL (5×) in cell assay media. 60 μL of cell assay media (no tet control) was dispensed in columns 1 and 24, and 60 μL of 5× tet in 384-PP-round bottom plate was dispensed in columns 2 to 23 with the Multidrop dispenser.
Assay ready plates from the Global Compound Archive were ordered using template 384_APOL1Cell_DR10n2_50 uM_v3. Compounds were dispensed at 200 nL in DMSO. The final top concentration was 10 μM with a 10 point 3-fold dilution in duplicate in the MultiTox assay.
20 μL was transferred from the 5× tet plate to the ARP and mixed, then 5 μL of 5× tet and the compounds were transferred to the cell plate and mixed using the Bravo. The cell plate was placed in the humidified 37° C. 5% CO2 incubator for 24 hours.
The MultiTox-Fluor Multiplex Cytotoxicity Assay was performed in accordance with the manufacturer's protocol. After cells were incubated with tet and compound for 24 hours, 25 μL of 1× MultiTox reagent was added to each well using the Multidrop dispenser; the plates were placed on a plate shaker (600 rpm) for 2 minutes, then centrifuged briefly and placed back in the 37° C. incubator for 30 minutes. The cell viability (excitation: 400 nm, emission: 486 nm) and cytotoxicity (excitation: 485 nm, emission: 535 nm) were read using the EnVision plate reader. A ratio of dead (cytotoxicity) to live (viability) cells was reported. Data was exported and analyzed in Genedata. Data was normalized using percent of control, no tet (100% viability), and 50 ng/mL tet treated (0% viability), and fit using Smart Fit settings in Genedata.

| Compound | IC50 [nM] |
| --- | --- |
| C[C@H]1C[C@@]2(CCN1Cc1cnn(C)c1)OCCc1ccc(Cl)cc12 [Compound 111] | ≤ 50 |
| Cc1ncc(CN2CC[C@]3(C[C@@H]2C)OCCc2ccc(Cl)cc23)cn1 [Compound 112] | ≤ 50 |
| C[C@H]1C[C@@]2(CCN1Cc1cnn3c1CCC3)OCCc1ccc(Cl)cc12 [Compound 113] | ≥ 500 |
| C[C@H]1C[C@@]2(CCN1Cc1cccnc1)OCCc1ccc(Cl)cc12 [Compound 114] | ≤ 50 |
| C[C@H]1C[C@@]2(CCN1Cc1cnn(CC(C)(CO)CO)c1)OCCc1ccc(Cl)cc12 [Compound 115] | ≤ 50 |
| C[C@H]1C[C@@]2(CCN1Cc1cnn(C3CCS(=O)(=O)C3)c1)OCCc1ccc(Cl)cc12 (some centres unmarked) [Compound 116] | ≤ 50 |
| C[C@H]1C[C@@]2(CCN1Cc1cnn(-c3ccccn3)c1)OCCc1ccc(Cl)cc12 [Compound 117] | ≤ 50 |
| C[C@H]1C[C@@]2(CCN1Cc1ccncc1)OCCc1ccc(Cl)cc12 [Compound 118] | ≤ 50 |
| C[C@H]1C[C@@]2(CCN1Cc1cncnc1)OCCc1ccc(Cl)cc12 [Compound 119] | ≤ 50 |
| C[C@H]1C[C@@]2(CCN1Cc1cnn(C(C)(C)C)c1)OCCc1ccc(Cl)cc12 [Compound 120] | 50 to 500 |
| CCn1cc(CN2CC[C@]3(C[C@@H]2C)OCCc2ccc(Cl)cc23)cn1 [Compound 121] | ≤ 50 |
| C[C@H]1C[C@@]2(CCN1Cc1cnn(C(F)F)c1)OCCc1ccc(Cl)cc12 [Compound 122] | ≤ 50 |
| C[C@H]1C[C@@]2(CCN1Cc1cnc(N)nc1)OCCc1ccc(Cl)cc12 [Compound 123] | ≤ 50 |
| C[C@H]1C[C@@]2(CCN1Cc1cnn(C[C@@H](O)C(C)(C)O)c1)OCCc1ccc(Cl)cc12 [Compound 124] | ≤ 50 |
| C[C@H]1C[C@@]2(CCN1Cc1cnn(C[C@H](O)C(C)(C)O)c1)OCCc1ccc(Cl)cc12 [Compound 125] | ≤ 50 |
| CNS(=O)(=O)CCn1cc(CN2CC[C@]3(C[C@@H]2C)OCCc2ccc(Cl)cc23)cn1 [Compound 126] | ≤ 50 |
| Cn1cc(CN2CCC3(CC2)OCCc2ccccc23)cn1 [Compound 127] | ≥ 500 |
| Cn1cc(CN2CCC3(CC2)OCCc2ccc(C(F)(F)F)cc23)cn1 [Compound 128] | ≥ 500 |
| CS(=O)(=O)CCn1cc(CN2CCC3(CC2)OCCc2ccc(Cl)cc23)nn1 [Compound 129] | ≥ 500 |

| Compound | IC50 [nM] |
| --- | --- |
| CS(=O)(=O)CCn1cc(CN2CCC3(CC2)OCC(O)c2ccc(Cl)cc23)cn1 (centres unmarked) [Compound 130] | 50 to 500 |
| C[C@H]1C[C@@]2(CCN1Cc1cnn(C)c1)OCC(O)c1ccc(Cl)cc12 (some centres unmarked) [Compound 131] | ≤ 50 |
| C[C@H]1C[C@@]2(CCN1Cc1cnn(CCS(C)(=O)=O)c1)OC[C@H](O)c1ccc(Cl)cc12 [Compound 132] | ≤ 50 |
| C[C@H]1C[C@@]2(CCN1Cc1cnn(CCS(C)(=O)=O)c1)OC[C@@H](O)c1ccc(Cl)cc12 [Compound 133] | ≤ 50 |
| C[C@H]1C[C@@]2(CCN1Cc1cnn(C)c1)OCC(O)c1ccc(Cl)cc12 (some centres unmarked) [Compound 134] | ≤ 50 |
| C[C@H]1C[C@@]2(CCN1Cc1cnn(CCS(C)(=O)=O)c1)OCC(F)(F)c1ccc(Cl)cc12 [Compound 135] | ≤ 50 |
| Cc1ccc2c(c1)C1(CCN(Cc3ccccc3)C(C)C1)OCC2 (centres unmarked) [Compound 136] | 50 to 500 |
| Cc1ccc2c(c1)C1(CCN(Cc3ccccc3)C(C)C1)OCC2 (centres unmarked) [Compound 137] | ≥ 500 |
| C[C@H]1C[C@@]2(CCN1Cc1ccccn1)OCCc1ccc(Cl)cc12 [Compound 138] | ≥ 500 |
| CC1CN(Cc2cnn(C)c2)CCC12OCCc1ccc(Cl)cc12 (centres unmarked) [Compound 140, 7-chloro-3′-methyl-1′-[(1-methylpyrazol-4-yl)methyl]spiro[isochromane-1,4′-piperidine]] | ≥ 500 |
| C[C@H]1C[C@@]2(CCN1Cc1cn(CCO)nn1)OCCc1ccc(Cl)cc12 [Compound 141, 2-[4-[[(1R,2′S)-7-chloro-2′-methyl-spiro[isochromane-1,4′-piperidine]-1′-yl]methyl]triazol-1-yl]ethanol] | ≤ 50 |
| C[C@H]1C[C@@]2(CCN1Cc1cn(Cc3ccnc(CO)c3)nn1)OCCc1ccc(Cl)cc12 [Compound 142, (4-((4-(((1R,2′S)-7-chloro-2′-methylspiro[isochromane-1,4′-piperidin]-1′-yl)methyl)-1H-1,2,3-triazol-1-yl)methyl)pyridin-2-yl)methanol] | 50 to 500 |
| C[C@H]1C[C@@]2(CCN1Cc1cn(CC(O)C(C)(C)O)nn1)OCCc1ccc(Cl)cc12 (some centres unmarked) [Compound 143] | ≤ 50 |
| CC(O)Cn1cc(CN2CC[C@]3(C[C@@H]2C)OCCc2ccc(Cl)cc23)nn1 (some centres unmarked) [Compound 144] | ≤ 50 |
| C[C@H]1C[C@@]2(CCN1Cc1cn(CC3CC(=O)N(C)C3)nn1)OCCc1ccc(Cl)cc12 (some centres unmarked) [Compound 145] | 50 to 500 |
| C[C@H]1C[C@@]2(CCN1Cc1cn(C3CC(=O)N(C)C3)nn1)OCCc1ccc(Cl)cc12 (some centres unmarked) [Compound 146] | ≤ 50 |
| C[C@H]1C[C@@]2(CCN1Cc1cn(CCCO)nn1)OCCc1ccc(Cl)cc12 [Compound 147] | ≤ 50 |
| C[C@H]1C[C@@]2(CCN1Cc1cn(CC3(CO)CC3)nn1)OCCc1ccc(Cl)cc12 [Compound 148] | ≤ 50 |
| C[C@H]1C[C@@]2(CCN1Cc1cn(CC3(O)CCOC3)nn1)OCCc1ccc(Cl)cc12 (some centres unmarked) [Compound 149] | ≤ 50 |

| Compound | IC50 [nM] |
| --- | --- |
| C[C@H]1C[C@@]2(CCN1Cc1cn(C3CN(S(C)(=O)=O)C3)nn1)OCCc1ccc(Cl)cc12 [Compound 150] | ≤ 50 |
| C[C@H]1C[C@@]2(CCN1Cc1cn(C(CO)CO)nn1)OCCc1ccc(Cl)cc12 [Compound 151] | ≥ 500 |
| C[C@H]1C[C@@]2(CCN1Cc1cn(CC(O)CO)nn1)OCCc1ccc(Cl)cc12 (some centres unmarked) [Compound 152] | ≤ 50 |
| C[C@H]1C[C@@]2(CCN1Cc1cn(C(C)(CO)CO)nn1)OCCc1ccc(Cl)cc12 [Compound 153] | ≥ 500 |
| CCn1cc(CN2CC[C@]3(C[C@@H]2C)OCCc2ccc(Cl)cc23)nn1 [Compound 154] | 50 to 500 |
| COCn1cc(CN2CC[C@]3(C[C@@H]2C)OCCc2ccc(Cl)cc23)nn1 [Compound 155] | 50 to 500 |
| C[C@H]1C[C@@]2(CCN1Cc1cn(CC(O)C(C)(C)O)nn1)OCCc1ccc(Cl)cc12 (some centres unmarked) [Compound 156] | ≤ 50 |
| C[C@H]1C[C@@]2(CCN1Cc1cn(CC(O)C(C)(C)O)nn1)OCCc1ccc(Cl)cc12 (some centres unmarked) [Compound 157] | ≤ 50 |
| C[C@H]1C[C@@]2(CCN1Cc1cn(CC(C)(C)CS(N)(=O)=O)nn1)OCCc1ccc(Cl)cc12 [Compound 158] | ≤ 50 |
| Cc1ccc(NCCn2cc(CN3CC[C@]4(C[C@@H]3C)OCCc3ccc(Cl)cc34)nn2)nn1 [Compound 159] | 50 to 500 |
| C[C@H]1C[C@@]2(CCN1Cc1cn(CCCc3nc(=O)[nH][nH]3)nn1)OCCc1ccc(Cl)cc12 [Compound 160] | 50 to 500 |
| CCc1nnc(Cn2cc(CN3CC[C@]4(C[C@@H]3C)OCCc3ccc(Cl)cc34)nn2)o1 [Compound 161] | ≤ 50 |
| CNc1cnc(Cn2cc(CN3CC[C@]4(C[C@@H]3C)OCCc3ccc(Cl)cc34)nn2)cn1 [Compound 162] | 50 to 500 |
| C[C@H]1C[C@@]2(CCN1Cc1cn(Cc3cc(=O)[nH]c(C4CC4)n3)nn1)OCCc1ccc(Cl)cc12 [Compound 163] | 50 to 500 |
| C[C@H]1C[C@@]2(CCN1Cc1cn(Cc3nc(CO)cs3)nn1)OCCc1ccc(Cl)cc12 [Compound 164] | 50 to 500 |
| Cc1nc(Cn2cc(CN3CC[C@]4(C[C@@H]3C)OCCc3ccc(Cl)cc34)nn2)sc1C(N)=O [Compound 165] | ≤ 50 |
| C[C@H]1C[C@@]2(CCN1Cc1cn(Cc3cnn4c3C(=O)N(C)CC4)nn1)OCCc1ccc(Cl)cc12 [Compound 166] | 50 to 500 |
| C[C@H]1C[C@@]2(CCN1Cc1cn(CC(C)(C)NS(C)(=O)=O)nn1)OCCc1ccc(Cl)cc12 [Compound 167] | ≤ 50 |
